pIC50: −log10 of the molar value. A value given as a limit tells only on which side of the number the result lay.

The test system of one data set is A431. Put plainly: A431 CellTiter-Glo. The data set is classed as cell-based. The conditions noted are these: Homo sapiens, A-431; 72 h compound incubation; read-out: A431 CTG IC50. The method, boiled down: (§1)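 ATP-based luminescent viability read after 72 h compound exposure (DMSO vehicle, range of concentrations), cells plated 24 h beforehand at 37° C, 5% CO2. IC50 by dose-response fitting; 10 μM Staurosporine and DMSO controls, Z′-factor ≥0.5 required.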
(Cellular ATP, detected with luciferase, serves as a proxy for viable cell number.)

Another data set concerns the target EGFR wt (Homo sapiens, UniProt P00533). Put plainly: EGFR wt Lance assay. The data set is classed as biochemical. As for the experimental part: (§2) Inhibition is indicated as […] [nM] (“−”=not measured). Compounds having an activity designated as “A” provided an IC50≤100 nM; compounds having an activity designated as “B” provided an 100 nM<IC50≤500 nM; compounds having an activity designated as “C” provided an 500 nM<IC50≤1000 nM; compounds having an activity designated as “D” provided an 1000 nM<IC50≤100000 nM; and compounds having an activity designated as “E” provided an IC50>10000 nM.

The target in data set [1] is Her2 Exon 20 INSYVMA Ba/F3 (Homo sapiens, UniProt P04626, DUP772-775, cells depend on it). Put plainly: Her2 Exon 20 INSYVMA Ba/F3 CellTiter-Glo. Conditions: CellTiter-Glo, 72 h, read-out: Her2 Exon 20 INSYVMA Ba/F3 CTG IC50. The data set is classed as cell-based. In short, it runs like this:
(§3)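 IC50 values, binned A (≤100 nM) through E (>10000 nM), come from luminescent ATP quantitation of viable mutant-driven Ba/F3 cells. Compound exposure lasted 72 h, starting 24 h post-seeding; DMSO and 10 μM staurosporine served as controls, Z′ ≥0.5 required.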

A further data set addresses T1, HER2 INS YVMA (Homo sapiens, UniProt P04626, INS775YVMA).
T1 construct: purchased DPF
Put plainly: Lance Kinase Activity Assay, HER2 INS YVMA (Her2 Exon 20 INSYVMA Lance). Type of data set: biochemical. Conditions: biochemical Lance assay. The method, boiled down: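 IC50 was fitted to sigmoidal curves of TR-FRET signal (665 and 615 nm emission after 340 nm excitation) from an Eu anti-phospho antibody binding the phosphorylated ULight peptide. The ATP-started reaction ran 1 h at RT and was then quenched with 10 mM EDTA plus antibody for a further 1 h. Compounds were tested as 8-point, 3-fold dilutions.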

In a further data set the target is EGFR T790ML858R (Homo sapiens, UniProt P00533, L858R/T790M). The data set can be described thus: EGFR T790ML858R Lance assay. The data set is classed as biochemical. As for the experimental part: as §2
For data set [2], the target named is EGFR Exon 20 INSNPH Ba/F3 (Homo sapiens, UniProt P00533, DUP771-773, cells depend on it). Put plainly: EGFR Exon 20 INSNPH Ba/F3 CellTiter-Glo. Conditions: CellTiter-Glo, 72 h, read-out: EGFR Exon 20 INSNPH Ba/F3 CTG IC50. Type of data set: cell-based. The method, boiled down:
as §3

A short description of data set [3]: Metabolic stability in mouse liver microsomes without cofactor NADPH. Conditions: 3 μM test compound, mouse liver microsomes, without NADPH, 50 min, 37° C., LC-MS/MS. Type of data set: in vitro ADME. In short, it runs like this:
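Cofactor-free incubation: no NADPH added to mouse liver microsomes, with compound at 3 μM and 37° C. Remaining parent was quantified by LC-MS/MS at time points up to 50 minutes to track depletion.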
In general terms: Microsomes from liver hold many membrane-bound enzymes, among them those of drug oxidation.

The test system of another data set is H1975. The data set can be described thus: H1975 CellTiter-Glo. The data set is classed as cell-based. Conditions: Homo sapiens, NCI-H1975; 72 h compound incubation; read-out: H1975 CTG IC50. In short, it runs like this:
as §1

Chain of EGFR Exon 20 INSNPH Ba/F3 (P00533 with tags, fused parts or gaps DUP771-773): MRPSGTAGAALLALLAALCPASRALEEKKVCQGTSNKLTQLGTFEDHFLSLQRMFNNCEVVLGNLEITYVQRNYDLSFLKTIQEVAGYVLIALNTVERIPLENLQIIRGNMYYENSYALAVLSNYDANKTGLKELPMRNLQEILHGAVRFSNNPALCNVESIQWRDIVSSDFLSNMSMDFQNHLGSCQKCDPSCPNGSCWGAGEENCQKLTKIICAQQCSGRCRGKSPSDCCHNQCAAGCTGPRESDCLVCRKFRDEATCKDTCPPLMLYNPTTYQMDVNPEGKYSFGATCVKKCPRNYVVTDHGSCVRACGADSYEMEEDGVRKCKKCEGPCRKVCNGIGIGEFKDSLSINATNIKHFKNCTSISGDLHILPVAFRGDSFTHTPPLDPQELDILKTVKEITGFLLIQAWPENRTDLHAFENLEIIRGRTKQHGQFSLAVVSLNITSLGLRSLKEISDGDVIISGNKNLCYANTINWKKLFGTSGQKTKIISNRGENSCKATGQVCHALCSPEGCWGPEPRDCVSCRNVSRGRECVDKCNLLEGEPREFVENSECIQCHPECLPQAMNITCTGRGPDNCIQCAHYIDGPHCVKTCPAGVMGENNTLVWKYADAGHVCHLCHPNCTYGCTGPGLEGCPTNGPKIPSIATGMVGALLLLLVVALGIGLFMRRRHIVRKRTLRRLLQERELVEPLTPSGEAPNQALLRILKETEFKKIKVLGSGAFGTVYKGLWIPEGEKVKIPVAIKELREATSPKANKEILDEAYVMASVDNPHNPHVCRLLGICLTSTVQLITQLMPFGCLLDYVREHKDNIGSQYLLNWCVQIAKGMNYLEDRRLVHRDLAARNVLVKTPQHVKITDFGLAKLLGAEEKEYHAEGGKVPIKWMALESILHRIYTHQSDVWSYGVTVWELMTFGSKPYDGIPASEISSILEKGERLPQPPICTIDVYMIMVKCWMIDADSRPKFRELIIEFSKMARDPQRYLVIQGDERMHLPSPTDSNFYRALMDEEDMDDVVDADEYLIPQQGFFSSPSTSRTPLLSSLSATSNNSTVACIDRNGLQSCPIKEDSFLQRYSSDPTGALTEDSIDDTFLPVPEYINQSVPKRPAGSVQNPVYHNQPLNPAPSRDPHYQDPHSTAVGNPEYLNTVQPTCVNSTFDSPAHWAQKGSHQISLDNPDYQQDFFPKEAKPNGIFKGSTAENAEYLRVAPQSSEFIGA
Chain of EGFR T790ML858R (P00533 25-1210 T790M/L858R): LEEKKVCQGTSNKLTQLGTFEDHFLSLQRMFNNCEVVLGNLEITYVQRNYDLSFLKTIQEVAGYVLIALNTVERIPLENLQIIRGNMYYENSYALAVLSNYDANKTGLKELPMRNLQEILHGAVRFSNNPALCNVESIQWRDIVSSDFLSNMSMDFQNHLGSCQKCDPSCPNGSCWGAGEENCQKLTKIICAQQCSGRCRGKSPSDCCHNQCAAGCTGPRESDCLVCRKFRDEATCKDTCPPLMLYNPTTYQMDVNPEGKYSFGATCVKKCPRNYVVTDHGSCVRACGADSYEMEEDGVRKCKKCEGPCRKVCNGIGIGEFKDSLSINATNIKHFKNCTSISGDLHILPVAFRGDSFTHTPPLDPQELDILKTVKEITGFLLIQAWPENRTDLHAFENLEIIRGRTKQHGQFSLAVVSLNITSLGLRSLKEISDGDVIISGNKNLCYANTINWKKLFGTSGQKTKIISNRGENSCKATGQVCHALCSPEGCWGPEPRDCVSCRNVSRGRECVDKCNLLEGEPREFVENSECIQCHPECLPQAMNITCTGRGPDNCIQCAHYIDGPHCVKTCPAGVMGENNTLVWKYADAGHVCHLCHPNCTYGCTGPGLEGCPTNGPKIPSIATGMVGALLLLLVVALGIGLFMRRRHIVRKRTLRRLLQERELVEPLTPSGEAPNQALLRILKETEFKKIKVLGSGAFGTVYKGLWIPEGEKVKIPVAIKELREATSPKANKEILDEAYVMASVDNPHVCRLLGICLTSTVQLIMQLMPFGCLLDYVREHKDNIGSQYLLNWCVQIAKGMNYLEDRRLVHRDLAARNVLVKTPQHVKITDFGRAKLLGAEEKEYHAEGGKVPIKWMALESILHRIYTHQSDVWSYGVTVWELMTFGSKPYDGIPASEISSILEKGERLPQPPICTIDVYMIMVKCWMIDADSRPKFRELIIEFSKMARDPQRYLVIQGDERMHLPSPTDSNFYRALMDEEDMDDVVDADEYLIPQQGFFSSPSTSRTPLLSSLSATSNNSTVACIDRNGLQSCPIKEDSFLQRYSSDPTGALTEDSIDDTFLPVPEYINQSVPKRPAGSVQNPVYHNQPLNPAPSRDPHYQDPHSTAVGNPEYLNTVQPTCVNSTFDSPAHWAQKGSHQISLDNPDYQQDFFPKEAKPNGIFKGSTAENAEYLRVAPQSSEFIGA
Chain of EGFR wt (P00533 25-1210): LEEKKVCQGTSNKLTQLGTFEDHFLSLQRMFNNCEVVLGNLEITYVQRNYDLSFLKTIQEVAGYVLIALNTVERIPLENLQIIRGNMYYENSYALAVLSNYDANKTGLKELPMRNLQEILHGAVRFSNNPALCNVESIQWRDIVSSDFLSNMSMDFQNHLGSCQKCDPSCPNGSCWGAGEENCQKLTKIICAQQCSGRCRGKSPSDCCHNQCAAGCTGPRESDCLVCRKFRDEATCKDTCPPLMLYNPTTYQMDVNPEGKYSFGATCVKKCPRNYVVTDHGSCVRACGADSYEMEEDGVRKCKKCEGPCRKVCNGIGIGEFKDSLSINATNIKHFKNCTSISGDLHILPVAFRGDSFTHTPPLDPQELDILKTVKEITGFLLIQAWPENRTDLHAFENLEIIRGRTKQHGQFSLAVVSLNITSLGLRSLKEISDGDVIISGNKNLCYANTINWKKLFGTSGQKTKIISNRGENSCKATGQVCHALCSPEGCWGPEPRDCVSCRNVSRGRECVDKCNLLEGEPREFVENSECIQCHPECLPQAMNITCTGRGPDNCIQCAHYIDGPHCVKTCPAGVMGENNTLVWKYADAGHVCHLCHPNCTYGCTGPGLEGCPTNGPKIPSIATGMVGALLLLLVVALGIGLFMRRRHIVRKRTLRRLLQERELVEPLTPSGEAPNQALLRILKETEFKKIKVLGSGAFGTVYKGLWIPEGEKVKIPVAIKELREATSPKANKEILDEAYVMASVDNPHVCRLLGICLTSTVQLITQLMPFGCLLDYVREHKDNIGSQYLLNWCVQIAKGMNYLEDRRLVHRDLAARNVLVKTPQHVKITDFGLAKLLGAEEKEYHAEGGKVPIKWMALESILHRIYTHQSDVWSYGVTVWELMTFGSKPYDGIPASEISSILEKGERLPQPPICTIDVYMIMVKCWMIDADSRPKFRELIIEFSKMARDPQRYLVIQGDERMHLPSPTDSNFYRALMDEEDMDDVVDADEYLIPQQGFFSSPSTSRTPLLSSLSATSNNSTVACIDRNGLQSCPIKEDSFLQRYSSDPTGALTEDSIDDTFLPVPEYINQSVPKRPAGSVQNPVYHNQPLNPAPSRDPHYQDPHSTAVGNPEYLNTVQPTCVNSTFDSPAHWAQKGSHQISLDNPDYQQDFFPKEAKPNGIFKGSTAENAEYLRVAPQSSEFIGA
Chain of Her2 Exon 20 INSYVMA Ba/F3 (P04626 with tags, fused parts or gaps DUP772-775): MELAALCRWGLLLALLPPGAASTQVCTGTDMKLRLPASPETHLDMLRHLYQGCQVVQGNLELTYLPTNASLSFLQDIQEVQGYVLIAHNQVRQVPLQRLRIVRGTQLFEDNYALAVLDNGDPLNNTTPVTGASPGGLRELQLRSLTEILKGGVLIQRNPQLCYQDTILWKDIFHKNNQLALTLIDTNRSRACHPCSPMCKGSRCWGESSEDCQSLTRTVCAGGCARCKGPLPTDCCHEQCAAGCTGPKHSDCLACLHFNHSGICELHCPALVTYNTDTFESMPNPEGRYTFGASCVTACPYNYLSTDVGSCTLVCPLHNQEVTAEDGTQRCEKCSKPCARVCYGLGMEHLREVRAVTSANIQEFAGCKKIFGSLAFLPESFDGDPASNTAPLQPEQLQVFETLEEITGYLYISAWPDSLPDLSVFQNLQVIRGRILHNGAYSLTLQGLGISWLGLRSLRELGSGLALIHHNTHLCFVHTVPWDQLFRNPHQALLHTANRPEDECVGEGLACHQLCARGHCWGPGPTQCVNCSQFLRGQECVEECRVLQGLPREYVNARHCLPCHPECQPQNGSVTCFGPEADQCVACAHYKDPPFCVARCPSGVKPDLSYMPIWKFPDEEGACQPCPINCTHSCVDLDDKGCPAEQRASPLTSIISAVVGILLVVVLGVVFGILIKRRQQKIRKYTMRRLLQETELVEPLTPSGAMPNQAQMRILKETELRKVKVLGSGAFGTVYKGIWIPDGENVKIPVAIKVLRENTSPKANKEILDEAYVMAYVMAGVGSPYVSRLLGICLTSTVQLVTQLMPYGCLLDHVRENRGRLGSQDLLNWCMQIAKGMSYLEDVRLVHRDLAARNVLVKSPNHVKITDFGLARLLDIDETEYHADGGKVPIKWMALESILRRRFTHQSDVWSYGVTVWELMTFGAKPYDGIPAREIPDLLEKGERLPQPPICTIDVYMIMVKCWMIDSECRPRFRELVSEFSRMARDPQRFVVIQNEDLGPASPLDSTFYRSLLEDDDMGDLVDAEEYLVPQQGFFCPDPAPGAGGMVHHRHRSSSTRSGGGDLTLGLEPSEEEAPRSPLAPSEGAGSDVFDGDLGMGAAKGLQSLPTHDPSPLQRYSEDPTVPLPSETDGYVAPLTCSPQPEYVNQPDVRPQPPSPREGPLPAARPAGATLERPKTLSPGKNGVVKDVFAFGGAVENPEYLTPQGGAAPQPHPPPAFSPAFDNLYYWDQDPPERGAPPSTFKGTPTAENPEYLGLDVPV

One may read the pIC50 as the IC50 on a negative log10 scale, so that one unit is a factor of ten. In the case of `C=CC(=O)Nc1cc(-c2c(-c3ccc(N4CCN(C)CC4)cc3)[nH]c3ncc(C(=O)O)cc23)ccc1C` [Example 116, 3-(3-acrylamido-4-methylphenyl)-2-(4-(4-methylpiperazin-1-yl)phenyl)-1H-pyrrolo[2,3-b]pyridine-5-carboxylic acid 2,2,2-trifluoroacetate], the pIC50 is < 5.00 in the data set on A431; ≥ 7.00 against EGFR wt; ≥ 7.00 on HER2 INS YVMA; ≥ 7.00 against EGFR T790ML858R; < 5.00 with H1975. The GI50 in data set [1] and in data set [2] was > 10000 nM each time. In data set [3], the “Stability in presence of mouse liver microsomes without cofactor NADPH [% remaining after 50 min]” value turned out to be 92 % remaining after 50 min.
Consider `C=CC(=O)Nc1cc(-c2c(-c3ccc(N4CCN(C)CC4)cc3)[nH]c3ncc(C(=O)NC(C)C)cc23)ccc1C` [Example 119, 3-(3-acrylamido-4-methylphenyl)-N-isopropyl-2-(4-(4-methylpiperazin-1-yl)phenyl)-1H-pyrrolo[2,3-b]pyridine-5-carboxamide], for which the pIC50 was 6.00 to 6.30 in the data set with A431; ≥ 7.00 at EGFR wt; ≥ 7.00 against HER2 INS YVMA; ≥ 7.00 against EGFR T790ML858R; 6.00 to 6.30 with H1975. Besides, the GI50 in data set [1] and in data set [2] was 100 to 500 nM in each case. In addition, the “Stability in presence of mouse liver microsomes without cofactor NADPH [% remaining after 50 min]” value in data set [3] is >99 % remaining after 50 min.
As to `C=CC(=O)Nc1cc(-c2c(-c3ccc(N4CCN(C)CC4)cc3)[nH]c3ncc(C(=O)NC4CCCCC4)cc23)ccc1C` [Example 120, 3-(3-acrylamido-4-methylphenyl)-N-cyclohexyl-2-(4-(4-methylpiperazin-1-yl)phenyl)-1H-pyrrolo[2,3-b]pyridine-5-carboxamide], the pIC50 was 6.30 to 7.00 in the data set on A431; ≥ 7.00 at EGFR wt; ≥ 7.00 against HER2 INS YVMA; ≥ 7.00 on EGFR T790ML858R; 6.30 to 7.00 in the data set with H1975. Also, the GI50 in data set [1] and in data set [2] was 100 to 500 nM throughout. In addition, the “Stability in presence of mouse liver microsomes without cofactor NADPH [% remaining after 50 min]” value in data set [3] is >99 % remaining after 50 min.
In the case of `C=CC(=O)Nc1cc(-c2c(-c3ccc(N4CCN(C)CC4)cc3)[nH]c3ncc(C(=O)OC)cc23)ccc1C` [Example 134, Methyl 3-(3-acrylamido-4-methylphenyl)-2-(4-(4-methylpiperazin-1-yl)phenyl)-1H-pyrrolo[2,3-b]pyridine-5-carboxylate 2,2,2-trifluoroacetate], the pIC50 in the data set with A431 was 4.00 to 6.00; against EGFR wt, ≥ 7.00; against HER2 INS YVMA, ≥ 7.00; at EGFR T790ML858R it was ≥ 7.00; in the data set on H1975, 6.30 to 7.00. Further, the GI50 in data set [1] and in data set [2] was 100 to 500 nM each time. Moreover, the “Stability in presence of mouse liver microsomes without cofactor NADPH [% remaining after 50 min]” value in data set [3] is reported as >99 % remaining after 50 min.
In the case of `C=CC(=O)Nc1cc(-c2c(-c3ccc(N4CCN(C)CC4)cc3)[nH]c3ncc(C(=O)OCC)cc23)ccc1C` [Example 135, ethyl 3-(3-acrylamido-4-methylphenyl)-2-(4-(4-methylpiperazin-1-yl)phenyl)-1H-pyrrolo[2,3-b]pyridine-5-carboxylate], the pIC50 with A431 was 4.00 to 6.00; at EGFR wt, ≥ 7.00; at HER2 INS YVMA it was ≥ 7.00; against EGFR T790ML858R it was ≥ 7.00; in the data set with H1975 it was ≥ 7.00. Moreover, the GI50 in data set [1] and in data set [2] was 100 to 500 nM throughout. Further, the “Stability in presence of mouse liver microsomes without cofactor NADPH [% remaining after 50 min]” value in data set [3] came out at 95 % remaining after 50 min.
For the compound `C=CC(=O)Nc1cc(-c2c(-c3ccc(N4CCN(C)CC4)cc3)[nH]c3ncc(C(=O)OC4CC4)cc23)ccc1C` [Example 138, cyclopropyl 3-(3-acrylamido-4-methylphenyl)-2-(4-(4-methylpiperazin-1-yl)phenyl)-1H-pyrrolo[2,3-b]pyridine-5-carboxylate], the pIC50 was 4.00 to 6.00 with A431; ≥ 7.00 against EGFR wt; ≥ 7.00 against HER2 INS YVMA; ≥ 7.00 against EGFR T790ML858R; ≥ 7.00 in the data set with H1975. For the same compound, the GI50 in data set [1] and in data set [2] was 100 to 500 nM in each case. Further, the “Stability in presence of mouse liver microsomes without cofactor NADPH [% remaining after 50 min]” value in data set [3] was >99 % remaining after 50 min.
Turning to `Cc1ccc(-c2c(-c3ccc(N4CCN(C)CC4)cc3)[nH]c3nccc(Cl)c23)cc1NC(=O)CCl` [Example 146, 2-chloro-N-(5-(4-chloro-2-(4-(4-methylpiperazin-1-yl)phenyl)-1H-pyrrolo[2,3-b]pyridin-3-yl)-2-methylphenyl)acetamide 2,2,2-trifluoroacetate], the pIC50 is 6.30 to 7.00 with A431; ≥ 7.00 against EGFR wt; ≥ 7.00 at HER2 INS YVMA; ≥ 7.00 at EGFR T790ML858R; ≥ 7.00 with H1975. Also, the GI50 in data set [1] and in data set [2] was 100 to 500 nM throughout. The “Stability in presence of mouse liver microsomes without cofactor NADPH [% remaining after 50 min]” value in data set [3] came out at 9 % remaining after 50 min.
For the compound `C=CC(=O)Nc1cc(-c2c(-c3ccc(N(C)CCN(C)C)cc3)[nH]c3ncc(C(=O)OC(C)C)cc23)ccc1C` [Example 154, isopropyl 3-(3-acrylamido-4-methylphenyl)-2-(4-((2-(dimethylamino)ethyl)(methyl)amino)phenyl)-1H-pyrrolo[2,3-b]pyridine-5-carboxylate 2,2,2-trifluoroacetate], the pIC50 with A431 was 4.00 to 6.00; at EGFR wt it was ≥ 7.00; on HER2 INS YVMA it was ≥ 7.00; on EGFR T790ML858R, ≥ 7.00; with H1975, 6.30 to 7.00. Further, the GI50 in data set [1] and in data set [2] was 100 to 500 nM each time. Moreover, the “Stability in presence of mouse liver microsomes without cofactor NADPH [% remaining after 50 min]” value in data set [3] is reported as >99 % remaining after 50 min.
Take `C=CC(=O)Nc1cc(-c2c(-c3ccc(N4CCN(C)CC4)cc3)[nH]c3ncc(Cl)c(C)c23)ccc1C` [Example 155]: the pIC50 in the data set with A431 was 4.00 to 6.00; against EGFR wt it was ≥ 7.00; on HER2 INS YVMA, ≥ 7.00; at EGFR T790ML858R, ≥ 7.00; in the data set on H1975, ≥ 7.00. Further, the GI50 in data set [1] was 500 to 1000 nM; in data set [2], 100 to 500 nM. For the same compound, the “Stability in presence of mouse liver microsomes without cofactor NADPH [% remaining after 50 min]” value in data set [3] is >99 % remaining after 50 min.
For `C=CC(=O)Nc1cc(-c2c(-c3ccc(N4CCN(CC)CC4)cc3)[nH]c3ncc(C(=O)OC(C)C)cc23)ccc1C` [Example 157, isopropyl 3-(3-acrylamido-4-methylphenyl)-2-(4-(4-ethylpiperazin-1-yl)phenyl)-1H-pyrrolo[2,3-b]pyridine-5-carboxylate], the pIC50 with A431 is 4.00 to 6.00; against EGFR wt, ≥ 7.00; against HER2 INS YVMA, ≥ 7.00; on EGFR T790ML858R it was ≥ 7.00; in the data set with H1975, 6.30 to 7.00. Moreover, the GI50 in data set [1] and in data set [2] was 100 to 500 nM throughout. The “Stability in presence of mouse liver microsomes without cofactor NADPH [% remaining after 50 min]” value in data set [3] is recorded as >99 % remaining after 50 min.
Take `C=CC(=O)Nc1cc(-c2c(-c3ccc(OCCN4CCCC4)cc3)[nH]c3ncc(C(=O)OC(C)C)cc23)ccc1C` [Example 158, isopropyl 3-(3-acrylamido-4-methylphenyl)-2-(4-(2-(pyrrolidin-1-yl)ethoxy)phenyl)-1H-pyrrolo[2,3-b]pyridine-5-carboxylate]: the negative logarithm of the IC50 (pIC50) is 4.00 to 6.00 with A431; ≥ 7.00 against EGFR wt; ≥ 7.00 at HER2 INS YVMA; ≥ 7.00 at EGFR T790ML858R; 6.30 to 7.00 in the data set with H1975. For the same compound, the GI50 in data set [1] and in data set [2] was 100 to 500 nM throughout. In addition, the “Stability in presence of mouse liver microsomes without cofactor NADPH [% remaining after 50 min]” value in data set [3] was >99 % remaining after 50 min.
